ChEMBL document CHEMBL5365457, “Selective HDAC3 Inhibitors with Potent In Vivo Antitumor Efficacy against Triple-Negative Breast Cancer” (J Med Chem, 2023)
Active and inactive are the calls of the source. The calls are words filed in the database; no cut-off is given here.

What was measured:
[1] = test system: 4T1; experiment: Antitumor activity against mouse 4T1 cells implanted in BALB/c mouse assessed as reduction in tumor growth at 5 to 15 mg/kg, ip administered 5 times a week for 21 days; assay type: functional, organism-based; details: dose 5-15 mg/kg, time 21.0 day
[2] = test system: Mus musculus; experiment: Induction of ROS generation in mouse implanted with mouse 4T1 cells at 15 mg/kg, ip administered for 21 days by DCFH-DA staining based microscopic analysis; assay type: functional, organism-based; details: time 21.0 day
[3] = test system: 4T1; experiment: Induction of apoptosis in mouse 4T1 cells assessed as nuclear fragmentation incubated for 72 hrs by acridine orange staining based analysis; assay type: functional, cell-based
[4] = Cmax in Wistar rat at 15 mg/kg, ip measured upto 24 hrs by HPLC analysis; assay type: ADME, organism-based; set-up: dose 15 mg/kg, time < 24 hrs, route ip; details: in vivo
[5] = Toxicity in BALB/c mouse implanted with mouse 4T1 cells assessed as liver fibrosis at 5 to 15 mg/kg, ip measured after 21 days; assay type: organism-based; details: in vivo, 504 h, dose 5-15 mg/kg, time 21 day
[6] = test system: MDA-MB-231; experiment: Cytotoxicity against human MDA-MB-231 cells assessed as inhibition of cell growth incubated for 72 hrs by MTT assay; assay type: functional, cell-based; details: MDA-MB-231, 72 h
[7] = Toxicity against BALB/c mouse implanted with mouse 4T1 cells assessed as body weight loss at 5 to 15 mg/kg,ip administered 5 times a week for 21 days; assay type: organism-based; details: in vivo, 504 h, dose 5-15 mg/kg, time 21 day
[8] = target: T1, Histone deacetylase 3 (Mus musculus) (UniProt O88895); experiment: Inhibition of HDAC3 in mouse 4T1 cells assessed as increase in acetylation of H4K12 level at 1 uM incubated for 72 hrs by western blot analysis; assay type: cell-based
T1 sequence (whole entry): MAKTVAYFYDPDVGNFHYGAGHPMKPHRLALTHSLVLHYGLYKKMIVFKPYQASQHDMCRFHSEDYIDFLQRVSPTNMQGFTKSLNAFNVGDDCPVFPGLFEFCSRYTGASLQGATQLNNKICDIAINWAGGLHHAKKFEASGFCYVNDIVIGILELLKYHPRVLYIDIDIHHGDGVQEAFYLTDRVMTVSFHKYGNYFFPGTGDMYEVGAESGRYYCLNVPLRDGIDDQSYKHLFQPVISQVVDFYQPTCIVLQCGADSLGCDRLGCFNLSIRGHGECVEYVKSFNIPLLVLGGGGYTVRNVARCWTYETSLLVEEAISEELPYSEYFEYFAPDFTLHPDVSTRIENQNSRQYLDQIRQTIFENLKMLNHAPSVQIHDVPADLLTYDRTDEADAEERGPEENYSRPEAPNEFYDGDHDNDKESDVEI

[9] = test system: 4T1; experiment: Antitumor activity against mouse 4T1 cells implanted in BALB/c mouse assessed as increase in apoptosis in tumor tissue at 5 to 15 mg/kg, ip by TUNEL staining based microscopic analysis; assay type: functional, organism-based; details: dose 5-15 mg/kg
[10] = Cytotoxicity against Oxaliplatin-resistant human MDA-MB-231 cell assessed as reduction in cell viability incubated for 72 hrs by MTT assay; assay type: functional, cell-based; details: Oxaliplatin-resistant MDA-MB-231 cell
[11] = Toxicity in BALB/c mouse implanted with mouse 4T1 cells assessed as liver damage at 5 to 15 mg/kg, ip measured after 21 days by H and E staining based assay; assay type: organism-based; details: in vivo, 504 h, dose 5-15 mg/kg, time 21 day
[12] = test system: 4T1; experiment: Induction of apoptosis in mouse 4T1 cells assessed as increase caspase 3/7 level at 1 uM by Western blot analysis; assay type: functional, cell-based
[13] = test system: 4T1; experiment: Antitumor activity against mouse 4T1 cells implanted in BALB/c mouse assessed as reduction in tumor volume at 15 mg/kg, ip administered 5 times a week for 21 days (reference value: 52.05+/-12.35 mm3); assay type: functional; details: time 21 day
[14] = Toxicity in BALB/c mouse implanted with mouse 4T1 cells assessed as kidney damage at 5 to 15 mg/kg, ip measured after 21 days by H and E staining based assay; assay type: organism-based; details: in vivo, 504 h, dose 5-15 mg/kg, time 21 day
[15] = test system: 4T1; experiment: Antitumor activity against mouse 4T1 cells implanted in BALB/c mouse assessed as reduction in tumor volume at 50 to 100 mg/kg, ip administered 5 times a week for 21 days; assay type: functional, organism-based; details: dose 50-100 mg/kg, time 21.0 day
[16] = test system: 4T1; experiment: Cytotoxicity against mouse 4T1 cells assessed as inhibition of cell growth incubated for 72 hrs by MTT assay; assay type: functional, cell-based; details: 4T1, 72 h
[17] = test system: 4T1; experiment: Induction of apoptosis in mouse 4T1 cells at 7.72 uM incubated for 72 hrs by annexin/PI staining based flow cytometry analysis (reference value: 1.35%); assay type: functional
[18] = MRT (0 to infinity) in Wistar rat at 5 mg/kg, ip measured upto 24 hrs by HPLC analysis; assay type: ADME, organism-based; details: in vivo
[19] = test system: 4T1; experiment: Antitumor activity against mouse 4T1 cells implanted in BALB/c mouse assessed as reduction in Ki-67 expression in tumor tissue at 5 to 15 mg/kg, ip measured for 21 days by fluorescence based microscopic analysis; assay type: functional, organism-based; details: dose 5-15 mg/kg, time 21.0 day
[20] = target: Histone deacetylase 3 (Homo sapiens, UniProt O15379); experiment: Inhibition of human recombinant HDAC3 at 1 uM measured after 30 mins by fluorescence based microplate assay relative to control
[21] = target: Histone deacetylase 2 (Homo sapiens, UniProt Q92769); experiment: Inhibition of human recombinant HDAC2 at 1 uM incubated for 30 mins by fluorescence based microplate assay relative to control
[22] = Cmax in Wistar rat at 5 mg/kg, ip measured upto 24 hrs by HPLC analysis; assay type: ADME, organism-based; set-up: time < 24 hrs, dose 5 mg/kg, route ip; details: in vivo
[23] = AUC (0 to t) in Wistar rat at 15 mg/kg, ip measured upto 24 hrs by HPLC analysis; assay type: ADME, organism-based; set-up: dose 15 mg/kg, time < 24 hrs, route ip; details: in vivo
[24] = test system: 4T1; experiment: Antitumor activity against mouse 4T1 cells implanted in BALB/c mouse assessed as reduction in tumor weight at 5 mg/kg, ip administered 5 times a week for 21 days; assay type: functional; details: time 21 day
[25] = Selectivity ratio of IC50 for cytotoxicity against human HEK293 cells assessed as inhibition of cell growth to IC50 for cytotoxicity against human MCF7 cells assessed as inhibition of cell growth; assay type: toxicity, cell-based; details: HEK293 cells versus MCF7 cells, read-out: Ratio IC50
[26] = Toxicity in BALB/c mouse implanted with mouse 4T1 cells assessed as effect on cell shape in spleen at 5 to 15 mg/kg, ip measured after 21 days by H and E staining based assay; assay type: organism-based; details: in vivo, 504 h, dose 5-15 mg/kg, time 21 day
[27] = Selectivity ratio of IC50 for cytotoxicity against human HCEC cells assessed as inhibition of cell growth to IC50 for cytotoxicity against human MDA-MB-453 cells assessed as inhibition of cell growth; assay type: toxicity, cell-based; details: HCEC cells versus MDA-MB-453 cells, read-out: Ratio IC50
[28] = target: Histone deacetylase 1 (Homo sapiens, UniProt Q13547); experiment: Inhibition of human recombinant HDAC1 incubated for 15 mins by fluorescence based microplate analysis
[29] = AUC (0 to infinity) in Wistar rat at 15 mg/kg, ip measured upto 24 hrs by HPLC analysis; assay type: ADME, organism-based; set-up: dose 15 mg/kg, time < 24 hrs, route ip; details: in vivo
[30] = Toxicity in BALB/c mouse implanted with mouse 4T1 cells assessed as effect on cell size in spleen at 5 to 15 mg/kg, ip measured after 21 days by H and E staining based assay; assay type: organism-based; details: in vivo, 504 h, dose 5-15 mg/kg, time 21 day
[31] = test system: 4T1; experiment: Cell cycle arrest in mouse 4T1 cells assessed as accumulation of cells at G2/M phase at 550 nM incubated for 72 hrs by flow cytometry; assay type: functional

Chain of Histone deacetylase 2 (Q92769 whole entry): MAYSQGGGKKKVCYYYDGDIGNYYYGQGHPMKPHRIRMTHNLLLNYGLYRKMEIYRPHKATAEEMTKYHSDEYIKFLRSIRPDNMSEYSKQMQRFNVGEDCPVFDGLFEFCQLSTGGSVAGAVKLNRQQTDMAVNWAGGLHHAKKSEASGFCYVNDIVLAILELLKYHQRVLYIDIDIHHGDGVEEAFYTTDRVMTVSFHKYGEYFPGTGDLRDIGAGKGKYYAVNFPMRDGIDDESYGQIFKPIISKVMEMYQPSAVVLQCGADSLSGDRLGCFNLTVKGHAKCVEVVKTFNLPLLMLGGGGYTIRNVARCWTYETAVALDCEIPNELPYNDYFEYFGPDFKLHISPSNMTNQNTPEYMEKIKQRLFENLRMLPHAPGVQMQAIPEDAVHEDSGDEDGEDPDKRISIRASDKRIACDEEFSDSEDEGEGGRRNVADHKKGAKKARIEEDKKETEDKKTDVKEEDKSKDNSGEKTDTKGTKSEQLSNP
Chain of Histone deacetylase 1 (Q13547 whole entry): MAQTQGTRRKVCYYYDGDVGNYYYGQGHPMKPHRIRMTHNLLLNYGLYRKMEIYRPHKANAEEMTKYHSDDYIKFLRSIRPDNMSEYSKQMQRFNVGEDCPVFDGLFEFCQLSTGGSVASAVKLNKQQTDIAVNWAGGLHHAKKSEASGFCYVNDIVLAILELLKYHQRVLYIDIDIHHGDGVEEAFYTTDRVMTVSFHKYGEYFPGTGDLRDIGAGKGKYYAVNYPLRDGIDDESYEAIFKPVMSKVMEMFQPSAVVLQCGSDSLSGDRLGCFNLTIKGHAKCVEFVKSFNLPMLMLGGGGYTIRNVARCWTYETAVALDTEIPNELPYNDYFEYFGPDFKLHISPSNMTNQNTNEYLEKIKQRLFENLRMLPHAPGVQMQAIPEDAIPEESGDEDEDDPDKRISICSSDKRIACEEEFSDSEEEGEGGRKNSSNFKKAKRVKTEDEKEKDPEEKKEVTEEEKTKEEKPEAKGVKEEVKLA
Chain of Histone deacetylase 3 (O15379 whole entry): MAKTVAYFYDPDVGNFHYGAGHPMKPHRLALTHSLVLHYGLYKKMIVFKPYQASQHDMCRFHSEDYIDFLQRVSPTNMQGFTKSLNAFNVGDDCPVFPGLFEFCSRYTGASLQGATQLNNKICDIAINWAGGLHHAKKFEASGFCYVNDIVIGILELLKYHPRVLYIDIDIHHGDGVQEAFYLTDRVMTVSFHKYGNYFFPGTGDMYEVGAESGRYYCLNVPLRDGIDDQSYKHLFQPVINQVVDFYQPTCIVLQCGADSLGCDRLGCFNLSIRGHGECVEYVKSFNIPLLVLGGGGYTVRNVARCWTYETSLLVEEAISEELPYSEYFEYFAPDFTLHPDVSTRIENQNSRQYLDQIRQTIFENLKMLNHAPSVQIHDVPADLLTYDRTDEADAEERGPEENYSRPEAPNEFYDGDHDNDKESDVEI

CCCNNC(=O)c1cnc(NCc2ccc(OC)cc2)cn1
Activity [1]: Active | Activity [2]: Active | Activity [3]: Active | Cmax [4]: 9580 ng/mL | Activity [5]: Non-Toxic | IC50 [6]: 740 nM | Activity [7]: Non-Toxic | inhibition [8]: Active | Activity [9]: Active | IC50 [10]: 754 nM | Activity [11]: Non-Toxic | Activity [12]: Active | Activity [13]: 101.23 mm3 | Activity [14]: Non-Toxic | Activity [15]: Active | IC50 [16]: 550 nM | Activity [17]: 46.9% | MRT inf [18]: 5.73 h | Activity [19]: Active | inhibition [20]: > 70% | inhibition [21]: < 17% | Cmax [22]: 1110 ng/mL | AUC(0-t) at 24 h [23]: 19600 ng·h/mL | Activity [24]: 0.65 g | selectivity ratio [25]: 286 | Activity [26]: Non-Toxic | selectivity ratio [27]: 286 | IC50 [28]: 1980 nM | AUC(0-inf) [29]: 20600 ng·h/mL | Activity [30]: Non-Toxic | Activity [31]: 52.6%
